{
  "source": "patent US10168342B2",
  "about": "“Lipid probes and uses thereof” (THE SCRIPPS RESEARCH INSTITUTE, priority 2015, dated 2019)",
  "key": {"[1]": {"molecular_target": "AEA-DA lipid probe targets in Neuro2a cells (Mus musculus, UniProt Q91V04)", "sequence (Q91V04 whole entry)": "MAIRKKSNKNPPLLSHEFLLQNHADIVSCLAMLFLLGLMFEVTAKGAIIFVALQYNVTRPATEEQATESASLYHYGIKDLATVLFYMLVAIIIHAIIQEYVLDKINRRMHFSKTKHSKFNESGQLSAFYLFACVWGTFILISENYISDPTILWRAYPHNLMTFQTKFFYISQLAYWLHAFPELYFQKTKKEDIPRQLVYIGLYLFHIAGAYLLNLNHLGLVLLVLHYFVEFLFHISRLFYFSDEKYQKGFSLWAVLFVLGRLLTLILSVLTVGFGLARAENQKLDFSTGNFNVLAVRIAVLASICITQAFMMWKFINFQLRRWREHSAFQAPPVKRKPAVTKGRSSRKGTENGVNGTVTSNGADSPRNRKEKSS"}, "[2]": {"molecular_target": "T1, AEA-DA lipid probe targets in Neuro2a cells (Mus musculus, UniProt P42125)", "T1 sequence (P42125 29-289)": "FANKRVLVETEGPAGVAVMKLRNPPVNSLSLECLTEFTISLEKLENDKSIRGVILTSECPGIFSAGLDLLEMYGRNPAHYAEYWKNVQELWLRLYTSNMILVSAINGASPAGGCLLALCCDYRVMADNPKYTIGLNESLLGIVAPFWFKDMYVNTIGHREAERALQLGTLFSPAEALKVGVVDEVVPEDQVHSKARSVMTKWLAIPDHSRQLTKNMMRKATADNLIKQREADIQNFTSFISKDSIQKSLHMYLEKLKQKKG"}, "[3]": {"molecular_target": "T2, AEA-DA lipid probe targets in Neuro2a cells (Mus musculus, UniProt Q62186)", "T2 sequence (Q62186 24-172)": "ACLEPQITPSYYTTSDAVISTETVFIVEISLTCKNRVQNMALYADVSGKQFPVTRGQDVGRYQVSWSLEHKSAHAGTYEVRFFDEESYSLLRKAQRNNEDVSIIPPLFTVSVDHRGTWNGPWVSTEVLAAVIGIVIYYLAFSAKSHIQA"}, "[4]": {"molecular_target": "T3, AEA-DA lipid probe targets in Neuro2a cells (Mus musculus, UniProt Q3U9G9)", "T3 sequence (Q3U9G9 1-626)": "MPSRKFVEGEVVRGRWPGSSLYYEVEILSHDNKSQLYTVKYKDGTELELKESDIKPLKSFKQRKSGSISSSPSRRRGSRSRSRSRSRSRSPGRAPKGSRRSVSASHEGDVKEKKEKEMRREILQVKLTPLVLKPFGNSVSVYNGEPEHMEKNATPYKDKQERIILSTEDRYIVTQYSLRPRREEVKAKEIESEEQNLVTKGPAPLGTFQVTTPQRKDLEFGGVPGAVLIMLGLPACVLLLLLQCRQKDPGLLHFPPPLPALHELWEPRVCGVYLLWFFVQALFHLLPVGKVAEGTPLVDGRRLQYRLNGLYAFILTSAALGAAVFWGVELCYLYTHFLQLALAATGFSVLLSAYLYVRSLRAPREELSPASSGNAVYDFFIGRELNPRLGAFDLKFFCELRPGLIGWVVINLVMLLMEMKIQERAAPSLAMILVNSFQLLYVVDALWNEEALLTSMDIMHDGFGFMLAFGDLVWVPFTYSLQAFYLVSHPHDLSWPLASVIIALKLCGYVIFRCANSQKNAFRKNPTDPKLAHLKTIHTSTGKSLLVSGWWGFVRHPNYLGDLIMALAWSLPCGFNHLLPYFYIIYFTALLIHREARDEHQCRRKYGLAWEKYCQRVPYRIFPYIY"}, "[5]": {"molecular_target": "T4, AEA-DA lipid probe targets in Neuro2a cells (Mus musculus, UniProt Q9D6K9)", "T4 sequence (Q9D6K9 1-414)": "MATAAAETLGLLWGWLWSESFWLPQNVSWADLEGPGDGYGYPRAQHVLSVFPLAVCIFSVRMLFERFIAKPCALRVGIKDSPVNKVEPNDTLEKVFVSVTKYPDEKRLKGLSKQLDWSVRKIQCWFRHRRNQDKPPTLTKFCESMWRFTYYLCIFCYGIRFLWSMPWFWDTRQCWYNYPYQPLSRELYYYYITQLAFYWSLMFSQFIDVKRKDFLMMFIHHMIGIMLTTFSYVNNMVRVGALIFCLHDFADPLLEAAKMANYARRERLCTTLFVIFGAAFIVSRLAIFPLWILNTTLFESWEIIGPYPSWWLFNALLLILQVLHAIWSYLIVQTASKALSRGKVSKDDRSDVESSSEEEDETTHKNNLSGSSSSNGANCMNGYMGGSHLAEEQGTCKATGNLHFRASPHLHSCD"}, "[6]": {"molecular_target": "T5, AEA-DA lipid probe targets in Neuro2a cells (Mus musculus, UniProt Q9CZS1)", "T5 sequence (Q9CZS1 20-519)": "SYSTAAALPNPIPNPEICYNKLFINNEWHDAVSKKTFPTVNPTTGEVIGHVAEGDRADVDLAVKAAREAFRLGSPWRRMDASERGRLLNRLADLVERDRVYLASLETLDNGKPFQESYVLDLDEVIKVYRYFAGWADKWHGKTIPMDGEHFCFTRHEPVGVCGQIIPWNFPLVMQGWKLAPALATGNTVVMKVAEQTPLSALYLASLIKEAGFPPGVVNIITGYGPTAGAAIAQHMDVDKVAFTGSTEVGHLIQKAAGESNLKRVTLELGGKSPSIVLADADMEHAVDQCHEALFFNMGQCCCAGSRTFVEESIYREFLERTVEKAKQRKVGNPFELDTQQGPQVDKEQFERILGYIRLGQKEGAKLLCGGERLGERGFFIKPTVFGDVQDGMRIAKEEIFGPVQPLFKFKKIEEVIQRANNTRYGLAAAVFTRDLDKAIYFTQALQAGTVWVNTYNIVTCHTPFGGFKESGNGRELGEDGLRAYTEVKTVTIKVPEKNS"}, "[7]": {"molecular_target": "T6, AEA-DA lipid probe targets in Neuro2a cells (Mus musculus, UniProt Q8BMG8)", "T6 sequence (Q8BMG8 1-316)": "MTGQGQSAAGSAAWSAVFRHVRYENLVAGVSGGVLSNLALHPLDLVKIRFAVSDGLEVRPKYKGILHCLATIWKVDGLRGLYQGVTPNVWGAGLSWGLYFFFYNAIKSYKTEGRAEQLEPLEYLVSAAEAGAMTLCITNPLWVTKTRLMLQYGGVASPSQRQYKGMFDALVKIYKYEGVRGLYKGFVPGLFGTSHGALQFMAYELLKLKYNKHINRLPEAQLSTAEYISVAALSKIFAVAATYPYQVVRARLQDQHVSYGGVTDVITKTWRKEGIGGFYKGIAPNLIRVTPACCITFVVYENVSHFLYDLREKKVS"}},
  "note": "Like-named read-outs stand apart in the source and are kept apart here.",
  "data": [
    {"smiles": "CCCCC/C=C\\C/C=C\\C/C=C\\C/C=C\\CCCC(=O)NCCO", "note": "[AEA, anandamide, reference compound]", "values": [
      {"measurement": "SILAC ratio, Tram1", "setting": "[1]; competitor 200 μM", "value": 2.9},
      {"measurement": "SILAC ratio, Eci1", "setting": "[2]; competitor 200 μM", "value": 2.0},
      {"measurement": "SILAC ratio, Ssr4", "setting": "[3]; competitor 200 μM", "value": 1.8},
      {"measurement": "SILAC ratio, Lbr", "setting": "[4]; competitor 200 μM", "value": 2.0},
      {"measurement": "SILAC ratio, Cers5", "setting": "[5]; competitor 200 μM", "value": 2.1},
      {"measurement": "SILAC ratio, Aldh1b1", "setting": "[6]; competitor 200 μM", "value": 2.7},
      {"measurement": "SILAC ratio, Slc25a32", "setting": "[7]; competitor 200 μM", "value": 1.5}
    ]},
    {"smiles": "C=CCN(C)CCCCCCOc1ccc(C(=O)c2ccc(Br)cc2)c(F)c1", "note": "[Ro 48-8071, reference compound]", "values": [
      {"measurement": "SILAC ratio, Tram1", "setting": "[1]; competitor 25 μM", "value": 1.8},
      {"measurement": "SILAC ratio, Eci1", "setting": "[2]; competitor 25 μM", "value": 0.9},
      {"measurement": "SILAC ratio, Ssr4", "setting": "[3]; competitor 25 μM", "value": 1.2},
      {"measurement": "SILAC ratio, Lbr", "setting": "[4]; competitor 25 μM", "value": 1.9},
      {"measurement": "SILAC ratio, Cers5", "setting": "[5]; competitor 25 μM", "value": 1.3},
      {"measurement": "SILAC ratio, Aldh1b1", "setting": "[6]; competitor 25 μM", "value": 1.6},
      {"measurement": "SILAC ratio, Slc25a32", "setting": "[7]; competitor 25 μM", "value": 1.1}
    ]},
    {"smiles": "CN1CCN(C(=O)c2c(-c3ccccc3)c3cc([N+](=O)[O-])ccc3n2C)CC1", "note": "[KML110, (1-Methyl-5-nitro-3-phenyl-1H-indol-2-yl)(4-methylpiperazin-1-yl)methanone]", "values": [
      {"measurement": "SILAC ratio, Tram1", "setting": "[1]; competitor 25 μM", "value": 1.7},
      {"measurement": "SILAC ratio, Eci1", "setting": "[2]; competitor 25 μM", "value": 1.5},
      {"measurement": "SILAC ratio, Ssr4", "setting": "[3]; competitor 25 μM", "value": 1.5},
      {"measurement": "SILAC ratio, Lbr", "setting": "[4]; competitor 25 μM", "value": 1.2},
      {"measurement": "SILAC ratio, Cers5", "setting": "[5]; competitor 25 μM", "value": 1.6},
      {"measurement": "SILAC ratio, Aldh1b1", "setting": "[6]; competitor 25 μM", "value": 1.7},
      {"measurement": "SILAC ratio, Slc25a32", "setting": "[7]; competitor 25 μM", "value": 1.5}
    ]},
    {"smiles": "O=C(/C=C/c1cccnc1)NCCCCC1CCN(C(=O)c2ccccc2)CC1", "note": "[FK-866, reference compound]", "values": [
      {"measurement": "SILAC ratio, Tram1", "setting": "[1]; competitor 25 μM", "value": 1.2},
      {"measurement": "SILAC ratio, Eci1", "setting": "[2]; competitor 25 μM", "value": 1.2},
      {"measurement": "SILAC ratio, Ssr4", "setting": "[3]; competitor 25 μM", "value": 1.2},
      {"measurement": "SILAC ratio, Lbr", "setting": "[4]; competitor 25 μM", "value": 1.0},
      {"measurement": "SILAC ratio, Cers5", "setting": "[5]; competitor 25 μM", "value": 1.1},
      {"measurement": "SILAC ratio, Aldh1b1", "setting": "[6]; competitor 25 μM", "value": 1.3},
      {"measurement": "SILAC ratio, Slc25a32", "setting": "[7]; competitor 25 μM", "value": 1.1}
    ]},
    {"smiles": "CN1CCN(C(=O)c2[nH]c3ccc([N+](=O)[O-])cc3c2-c2ccccc2)CC1", "note": "[MJN228, (4-Methylpiperazin-1-yl)(5-nitro-3-phenyl-1H-indol-2-yl)methanone]", "values": [
      {"measurement": "SILAC ratio, Tram1", "setting": "[1]; competitor 10 μM", "value": 1.3},
      {"measurement": "SILAC ratio, Tram1", "setting": "[1]; competitor 25 μM", "value": 1.8},
      {"measurement": "SILAC ratio, Tram1", "setting": "[1]; competitor 50 μM", "value": 1.9},
      {"measurement": "SILAC ratio, Tram1", "setting": "[1]; competitor 100 μM", "value": 5.4},
      {"measurement": "SILAC ratio, Eci1", "setting": "[2]; competitor 10 μM", "value": 1.4},
      {"measurement": "SILAC ratio, Eci1", "setting": "[2]; competitor 25 μM", "value": 2.0},
      {"measurement": "SILAC ratio, Eci1", "setting": "[2]; competitor 50 μM", "value": 2.4},
      {"measurement": "SILAC ratio, Eci1", "setting": "[2]; competitor 100 μM", "value": 3.8},
      {"measurement": "SILAC ratio, Ssr4", "setting": "[3]; competitor 10 μM", "value": 1.5},
      {"measurement": "SILAC ratio, Ssr4", "setting": "[3]; competitor 25 μM", "value": 1.9},
      {"measurement": "SILAC ratio, Ssr4", "setting": "[3]; competitor 50 μM", "value": 2.4},
      {"measurement": "SILAC ratio, Ssr4", "setting": "[3]; competitor 100 μM", "value": 2.6},
      {"measurement": "SILAC ratio, Lbr", "setting": "[4]; competitor 10 μM", "value": 1.1},
      {"measurement": "SILAC ratio, Lbr", "setting": "[4]; competitor 25 μM", "value": 1.3},
      {"measurement": "SILAC ratio, Lbr", "setting": "[4]; competitor 50 μM", "value": 1.5},
      {"measurement": "SILAC ratio, Lbr", "setting": "[4]; competitor 100 μM", "value": 1.8},
      {"measurement": "SILAC ratio, Cers5", "setting": "[5]; competitor 10 μM", "value": 1.2},
      {"measurement": "SILAC ratio, Cers5", "setting": "[5]; competitor 25 μM", "value": 1.8},
      {"measurement": "SILAC ratio, Cers5", "setting": "[5]; competitor 50 μM", "value": 2.1},
      {"measurement": "SILAC ratio, Cers5", "setting": "[5]; competitor 100 μM", "value": 3.0},
      {"measurement": "SILAC ratio, Aldh1b1", "setting": "[6]; competitor 10 μM", "value": 1.2},
      {"measurement": "SILAC ratio, Aldh1b1", "setting": "[6]; competitor 25 μM", "value": 1.6},
      {"measurement": "SILAC ratio, Aldh1b1", "setting": "[6]; competitor 50 μM", "value": 2.0},
      {"measurement": "SILAC ratio, Aldh1b1", "setting": "[6]; competitor 100 μM", "value": 2.6},
      {"measurement": "SILAC ratio, Slc25a32", "setting": "[7]; competitor 10 μM", "value": 1.5},
      {"measurement": "SILAC ratio, Slc25a32", "setting": "[7]; competitor 25 μM", "value": 1.5},
      {"measurement": "SILAC ratio, Slc25a32", "setting": "[7]; competitor 50 μM", "value": 1.5},
      {"measurement": "SILAC ratio, Slc25a32", "setting": "[7]; competitor 100 μM", "value": 1.9}
    ]}
  ]
}
